The results in this text go back to ChEMBL document CHEMBL1201862, “PubChem BioAssay data set” (2004).

Common to all, as to assay: NCI tumour cell line growth inhibition, 48 h
Assay [1] concerns SK-MEL-5.
Assay [2] relates to UACC-62.
In assay [3] the test system is HL-60.
The test system of assay [4] is K562.
The subject of assay [5] is OVCAR-3.
In assay [6] the test system is HOP-62.
Assay [7] relates to COLO 205.
Assay [8] has as its system Malme-3M.
Assay [9] relates to HCT-116.
Assay [10] concerns HOP-92.
For assay [11], the system named is SF-539.
Assay [12] has as its system NCI-H23.
The subject of assay [13] is RXF 393.
The subject of assay [14] is KM12.
In assay [15] the test system is EKVX.
In assay [16] the test system is MDA-MB-231.
Assay [17] relates to NCI/ADR-RES.
Assay [18] concerns MCF7.
For assay [19], the system named is DU-145.

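The compound was tested at five concentrations on cells cultured in 96-well plates, with a 48-hour exposure period. GI50 = concentration required for 50% inhibition of growth.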 Calls of active or inactive are those of the source. Cut-off read from the data, not from the text of the source: active = GI50 up to about 1.1 µM and inactive = higher.

In the case of `CC(/C=C1\CCC(CN(C)C)C1=O)c1cccc(Br)c1` (centres undefined), the GI50 in [1] was 13.8 µM (inactive); in assay [2] it was 17.3 µM (inactive); in assay [3], 3.06 µM (inactive); in [4] it was 2.77 µM (inactive); in assay [5], 17 µM (inactive); in assay [6] it was 22.7 µM (inactive). Also, the GI50 was 17.9 µM (inactive) in [7]; 17.8 µM (inactive) in assay [8]; 8.59 µM (inactive) in [9]; 18.2 µM (inactive) in assay [10]; 18 µM (inactive) in assay [11]; 19.5 µM (inactive) in assay [12]. The GI50 in [13] is 13.3 µM (inactive); in assay [14] it was 10.1 µM (inactive); in assay [15] it was 20.9 µM (inactive).
In the case of `C/C(CC(=O)Nc1cccc(C)c1C)=N\NC(N)=S`, the GI50 in assay [1], in assay [2], in assay [3], in assay [4], in [5] and in [6] was > 100 µM (inactive) throughout. The GI50 in [7] was > 100 µM (inactive); in assay [8], > 100 µM (inactive); in [9] it was 88.7 µM (inactive); in assay [10] it was > 100 µM (inactive); in assay [11] it was > 100 µM (inactive); in assay [12], > 100 µM (inactive). The GI50 in assay [13], in [14] and in assay [15] was > 100 µM (inactive) in each case.
Take `N#C/C(=C/c1ccc([N+](=O)[O-])o1)c1ccccc1`: the GI50 in assay [1], in [2], in assay [3], in [4], in assay [5] and in assay [6] was > 100 µM (inactive) throughout. Besides, the GI50 in assay [7], in [8], in assay [9], in assay [10], in assay [11] and in assay [12] was > 100 µM (inactive) throughout. In addition, the GI50 in assay [13], in assay [14] and in assay [15] was > 100 µM (inactive) each time.
Turning to `COc1ccc([C@@]23OC[C@@H]4[C@@H](OC[C@@H]42)c2cc(OC)c(OC)cc23)cc1OC`, the GI50 in [1], in assay [16], in [2], in assay [17], in [3] and in assay [18] was > 100 µM (inactive) in each case. The GI50 in assay [4], in assay [5], in assay [19], in assay [6], in [7] and in [8] was > 100 µM (inactive) throughout. The GI50 in assay [9], in [11], in [12], in assay [13], in assay [14] and in assay [15] was > 100 µM (inactive) throughout.
With `Cc1noc2cccc(O)c12`, the GI50 in assay [1], in assay [2], in assay [3], in [4], in assay [5] and in assay [6] was > 100 µM (inactive) in each case. For the same molecule, the GI50 in assay [7], in assay [8], in [9], in [10], in assay [11] and in assay [12] was > 100 µM (inactive) throughout. Further, the GI50 in assay [13], in assay [14] and in assay [15] was > 100 µM (inactive) throughout.
Consider `CN(C)c1ccc([S+]([O-])Nc2ccccc2)cc1` (centres undefined), for which the GI50 in assay [1] was 11.9 µM (inactive); in assay [16], 33.3 µM (inactive); in [2], 22.5 µM (inactive); in assay [17] it was 22.1 µM (inactive); in [3] it was 28.1 µM (inactive); in [18], 29.4 µM (inactive). Moreover, the GI50 was 28.1 µM (inactive) in [4]; > 100 µM (inactive) in [5]; > 100 µM (inactive) in assay [19]; 56 µM (inactive) in [6]; 24.6 µM (inactive) in assay [7]; 49.8 µM (inactive) in [8]. Further, the GI50 was 26.6 µM (inactive) in [9]; > 100 µM (inactive) in [11]; 45.7 µM (inactive) in assay [12]; 17.1 µM (inactive) in assay [14]; 32.8 µM (inactive) in assay [15].
Take `C=C(c1ccccc1N)[C@@]1(O)C[C@H](/C(=C\C)CO)C[C@@H]1NCc1ccccc1`: the GI50 in assay [1] is 17.1 µM (inactive); in [2], 28.6 µM (inactive); in assay [3], 13.3 µM (inactive); in [4], 18.6 µM (inactive); in assay [5], 18.2 µM (inactive); in assay [6], 32.7 µM (inactive). Besides, the GI50 in assay [7] was 16.7 µM (inactive); in assay [8], 13.4 µM (inactive); in assay [9], 15.3 µM (inactive); in assay [10], 3.78 µM (inactive); in assay [11] it was 16.3 µM (inactive); in assay [12], 29.9 µM (inactive). Also, the GI50 is 16.7 µM (inactive) in [13], 18.2 µM (inactive) in assay [14] and 37.1 µM (inactive) in assay [15].
`O=C1CCCc2ccc([N+](=O)[O-])c(O)c21`: the GI50 in assay [1] was > 100 µM (inactive); in [2] it was 54.6 µM (inactive); in [3] it was 92.5 µM (inactive); in [4], > 100 µM (inactive); in assay [5] it was > 100 µM (inactive); in assay [6], > 100 µM (inactive). Also, the GI50 was > 100 µM (inactive) in [7]; 34.4 µM (inactive) in [8]; > 100 µM (inactive) in assay [9]; 68.1 µM (inactive) in assay [10]; > 100 µM (inactive) in assay [11]; > 100 µM (inactive) in assay [12]. For the same molecule, the results for the GI50 in [13], in [14] and in [15] were 55.1 µM (inactive), > 100 µM (inactive) and > 100 µM (inactive), respectively.
`O=CC1C(Cl)=Nc2nc3ccccc3n2C1c1ccccc1` (centres undefined): the GI50 is 19.6 µM (inactive) in assay [1]; 17.1 µM (inactive) in [16]; 24.7 µM (inactive) in assay [2]; 24 µM (inactive) in assay [17]; 20 µM (inactive) in assay [3]; 20.4 µM (inactive) in [18]. Besides, the GI50 in assay [4] was 15.2 µM (inactive); in [5], 23.2 µM (inactive); in assay [19], 16 µM (inactive); in assay [6], 18.1 µM (inactive); in [7], 19.2 µM (inactive); in assay [8], 23.9 µM (inactive). The GI50 in assay [9] is 22.1 µM (inactive); in [10] it was 10.4 µM (inactive); in assay [11], 18.1 µM (inactive); in [12] it was 23.4 µM (inactive); in [13], 13.7 µM (inactive); in assay [14], 23.4 µM (inactive). In assay [15], the GI50 is 25.2 µM (inactive).
On to `NC1=C2C(Br)=CN([C@@H]3O[C@H](CO)[C@@H](O)[C@@H]3O)C2C(=O)N=N1` (some centres undefined), for which the GI50 in [1] is 11.3 µM (inactive); in assay [2], 16.6 µM (inactive); in [3] it was 0.223 µM (active); in assay [4], 6.67 µM (inactive); in assay [5], 0.811 µM (active); in [6], 15.1 µM (inactive). The GI50 in assay [7] is 7.93 µM (inactive); in [8] it was 6.89 µM (inactive); in assay [9] it was 1.82 µM (inactive); in assay [10] it was 2.51 µM (inactive); in [11] it was 5.32 µM (inactive); in assay [12], 5.58 µM (inactive). For the same molecule, the GI50 in [13] was 2.28 µM (inactive); in [14], 7.38 µM (inactive); in [15], 5.93 µM (inactive).
Turning to `CC(C)=CC(=O)Oc1ccc([N+](=O)[O-])cc1`, the GI50 in assay [1] was > 100 µM (inactive); in assay [2], > 100 µM (inactive); in [3], 24.7 µM (inactive); in [4], > 100 µM (inactive); in assay [5], > 100 µM (inactive); in [6], > 100 µM (inactive). Also, the GI50 in assay [7], in assay [8], in assay [9], in [10], in [11] and in [12] was > 100 µM (inactive) each time. Also, the GI50 in assay [13] is > 100 µM (inactive); in assay [14], 38.3 µM (inactive); in assay [15] it was > 100 µM (inactive).
Regarding `COc1ccc(C=O)c(N(C)C(=O)C(C)(C)C)c1`, the GI50 in assay [1], in assay [2], in assay [3], in assay [4], in assay [5] and in [6] was > 100 µM (inactive) in each case. In addition, the GI50 in assay [7], in assay [8], in assay [9], in assay [10], in assay [11] and in assay [12] was > 100 µM (inactive) each time. The GI50 in assay [13], in assay [14] and in [15] was > 100 µM (inactive) throughout.
Turning to `Cc1ccccc1NC(=O)C(=O)C(C#N)c1ccc(Cl)cc1` (centres undefined), the GI50 was 41.8 µM (inactive) in assay [1]; 37.4 µM (inactive) in assay [2]; 27.8 µM (inactive) in assay [3]; 29.1 µM (inactive) in assay [4]; > 100 µM (inactive) in assay [5]; > 100 µM (inactive) in [6]. Also, the GI50 is 31.3 µM (inactive) in assay [7]; > 100 µM (inactive) in [8]; 34 µM (inactive) in [9]; 45.8 µM (inactive) in assay [10]; 30.4 µM (inactive) in assay [11]; 56.5 µM (inactive) in assay [12]. In addition, the GI50 was > 100 µM (inactive) in assay [13], 44.6 µM (inactive) in assay [14] and > 100 µM (inactive) in assay [15].
